According to patent US11208412B2 (DAEGU-GYEONGBUK MEDICAL INNOVATION FOUNDATION, priority 2017, dated 2021):

How the values were obtained:
Test in all cases: Kinase selectivity, DiscoverX scanMAX Kinase assay panel (% control)
Format in all cases: binding
[1] = molecular target: T1, kinases of the scanMAX Kinase assay panel (Homo sapiens, UniProt O15264); conditions: p38-delta; 1 uM
T1 construct: purchased DiscoverX Co. (contract measurement) scanMAX Kinase assay panel
T1 sequence (O15264 1-365): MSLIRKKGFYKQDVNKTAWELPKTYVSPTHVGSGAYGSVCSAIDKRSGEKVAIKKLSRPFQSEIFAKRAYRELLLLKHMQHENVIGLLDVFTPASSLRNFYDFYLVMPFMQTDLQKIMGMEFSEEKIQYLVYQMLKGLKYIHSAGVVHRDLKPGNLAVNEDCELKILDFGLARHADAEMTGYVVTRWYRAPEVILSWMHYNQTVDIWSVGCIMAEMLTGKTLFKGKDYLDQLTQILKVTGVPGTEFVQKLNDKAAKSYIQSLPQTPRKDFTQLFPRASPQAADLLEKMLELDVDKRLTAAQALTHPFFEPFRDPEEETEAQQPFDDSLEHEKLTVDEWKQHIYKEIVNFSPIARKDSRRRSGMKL
Method in brief: (§1)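 A 1 uM DMSO solution of compound was applied across the panel kinases, and results were expressed as % control relative to DMSO (100%) and a positive control (0%).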

[2] = molecular target: T2, kinases of the scanMAX Kinase assay panel (Homo sapiens, UniProt Q8IY84); conditions: NIM1; 1 uM
T2 construct: purchased DiscoverX Co. (contract measurement) scanMAX Kinase assay panel
T2 sequence (Q8IY84 whole entry): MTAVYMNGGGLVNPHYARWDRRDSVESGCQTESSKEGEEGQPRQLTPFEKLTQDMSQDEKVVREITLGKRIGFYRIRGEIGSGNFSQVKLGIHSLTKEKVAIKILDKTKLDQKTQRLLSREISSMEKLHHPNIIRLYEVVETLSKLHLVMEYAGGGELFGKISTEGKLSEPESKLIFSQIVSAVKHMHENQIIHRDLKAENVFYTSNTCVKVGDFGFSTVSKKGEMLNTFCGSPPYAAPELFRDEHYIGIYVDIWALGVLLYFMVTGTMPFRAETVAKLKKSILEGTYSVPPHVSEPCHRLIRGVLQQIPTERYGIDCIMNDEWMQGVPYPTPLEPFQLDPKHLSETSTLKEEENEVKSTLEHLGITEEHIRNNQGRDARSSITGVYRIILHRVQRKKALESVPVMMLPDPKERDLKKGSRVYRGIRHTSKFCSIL
Method in brief: as §1

[3] = molecular target: T3, kinases of the scanMAX Kinase assay panel (Homo sapiens, UniProt Q9Y463); conditions: DYRK1B; 1 uM
T3 construct: purchased DiscoverX Co. (contract measurement) scanMAX Kinase assay panel
T3 sequence (Q9Y463 whole entry): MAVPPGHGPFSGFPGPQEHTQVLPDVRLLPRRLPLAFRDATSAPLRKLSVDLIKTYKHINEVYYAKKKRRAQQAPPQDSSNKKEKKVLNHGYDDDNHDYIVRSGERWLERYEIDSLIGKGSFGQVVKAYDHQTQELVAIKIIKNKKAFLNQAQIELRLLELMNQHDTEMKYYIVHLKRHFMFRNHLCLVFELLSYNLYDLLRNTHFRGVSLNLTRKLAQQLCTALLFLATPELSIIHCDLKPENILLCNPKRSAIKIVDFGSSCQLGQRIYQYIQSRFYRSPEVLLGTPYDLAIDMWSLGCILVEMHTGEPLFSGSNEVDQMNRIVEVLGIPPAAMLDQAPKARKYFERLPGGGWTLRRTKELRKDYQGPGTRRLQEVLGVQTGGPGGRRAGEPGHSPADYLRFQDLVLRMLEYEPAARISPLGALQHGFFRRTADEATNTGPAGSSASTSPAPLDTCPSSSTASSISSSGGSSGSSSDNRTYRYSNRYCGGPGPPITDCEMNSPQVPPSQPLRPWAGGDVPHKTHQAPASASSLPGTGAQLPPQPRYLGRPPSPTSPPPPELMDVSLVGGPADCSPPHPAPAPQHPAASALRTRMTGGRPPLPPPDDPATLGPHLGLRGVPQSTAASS
Method in brief: as §1

[4] = molecular target: T4, kinases of the scanMAX Kinase assay panel (Homo sapiens, UniProt P15056, V600E); conditions: BRAF(V600E); 1 uM
T4 construct: purchased DiscoverX Co. (contract measurement) scanMAX Kinase assay panel
T4 sequence (P15056 whole entry V600E): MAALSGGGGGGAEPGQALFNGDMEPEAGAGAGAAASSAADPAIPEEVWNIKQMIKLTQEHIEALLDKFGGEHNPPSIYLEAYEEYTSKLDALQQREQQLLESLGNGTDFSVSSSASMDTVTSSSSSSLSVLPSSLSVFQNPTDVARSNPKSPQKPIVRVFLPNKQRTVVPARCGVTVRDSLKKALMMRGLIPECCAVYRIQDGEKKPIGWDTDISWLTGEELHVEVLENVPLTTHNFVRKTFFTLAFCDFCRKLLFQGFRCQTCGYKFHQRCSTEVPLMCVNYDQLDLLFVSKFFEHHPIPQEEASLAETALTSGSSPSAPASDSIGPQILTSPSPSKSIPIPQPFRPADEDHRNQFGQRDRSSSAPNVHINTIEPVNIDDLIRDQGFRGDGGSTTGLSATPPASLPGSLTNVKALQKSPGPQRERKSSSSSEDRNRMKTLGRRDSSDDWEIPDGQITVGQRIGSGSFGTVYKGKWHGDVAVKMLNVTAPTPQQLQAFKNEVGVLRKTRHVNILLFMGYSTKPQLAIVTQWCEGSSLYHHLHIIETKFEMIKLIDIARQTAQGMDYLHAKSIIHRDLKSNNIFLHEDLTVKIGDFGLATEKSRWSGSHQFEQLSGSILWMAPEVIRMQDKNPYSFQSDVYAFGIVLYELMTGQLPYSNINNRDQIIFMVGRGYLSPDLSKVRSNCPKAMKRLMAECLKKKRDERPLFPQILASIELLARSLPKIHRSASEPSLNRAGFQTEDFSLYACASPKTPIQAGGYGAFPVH
Method in brief: as §1

[5] = molecular target: T5, kinases of the scanMAX Kinase assay panel (Homo sapiens, UniProt P43405); conditions: kinase SYK; 1 uM in DMSO
T5 construct: purchased DiscoverX Co. (contract measurement) scanMAX Kinase assay panel
Method in brief: as §1

[6] = molecular target: T6, kinases of the scanMAX Kinase assay panel (Homo sapiens, UniProt Q9H093); conditions: kinase SNARK; 1 uM in DMSO
T6 construct: purchased DiscoverX Co. (contract measurement) scanMAX Kinase assay panel
T6 sequence (Q9H093 1-628): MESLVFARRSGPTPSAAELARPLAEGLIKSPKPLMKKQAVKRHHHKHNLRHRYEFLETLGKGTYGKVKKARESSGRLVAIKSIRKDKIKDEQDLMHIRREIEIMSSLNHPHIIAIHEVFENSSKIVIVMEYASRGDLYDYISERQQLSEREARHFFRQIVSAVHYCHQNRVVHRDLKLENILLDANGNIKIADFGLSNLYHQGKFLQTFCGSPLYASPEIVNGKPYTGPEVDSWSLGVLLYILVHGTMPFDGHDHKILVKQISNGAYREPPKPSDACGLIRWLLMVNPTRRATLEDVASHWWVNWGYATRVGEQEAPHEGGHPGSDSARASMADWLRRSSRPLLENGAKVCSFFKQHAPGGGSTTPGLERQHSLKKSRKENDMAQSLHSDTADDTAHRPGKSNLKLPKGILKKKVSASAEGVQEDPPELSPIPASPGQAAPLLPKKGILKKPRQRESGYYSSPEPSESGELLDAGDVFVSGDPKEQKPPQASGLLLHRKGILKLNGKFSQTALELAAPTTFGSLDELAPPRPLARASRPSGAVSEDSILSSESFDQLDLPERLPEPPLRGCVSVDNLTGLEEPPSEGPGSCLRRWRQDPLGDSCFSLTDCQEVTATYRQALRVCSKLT
Method in brief: as §1

[7] = molecular target: T7, kinases of the scanMAX Kinase assay panel (Homo sapiens, UniProt P49674); conditions: CSNK1E; 1 uM
T7 construct: purchased DiscoverX Co. (contract measurement) scanMAX Kinase assay panel
T7 sequence (P49674 whole entry): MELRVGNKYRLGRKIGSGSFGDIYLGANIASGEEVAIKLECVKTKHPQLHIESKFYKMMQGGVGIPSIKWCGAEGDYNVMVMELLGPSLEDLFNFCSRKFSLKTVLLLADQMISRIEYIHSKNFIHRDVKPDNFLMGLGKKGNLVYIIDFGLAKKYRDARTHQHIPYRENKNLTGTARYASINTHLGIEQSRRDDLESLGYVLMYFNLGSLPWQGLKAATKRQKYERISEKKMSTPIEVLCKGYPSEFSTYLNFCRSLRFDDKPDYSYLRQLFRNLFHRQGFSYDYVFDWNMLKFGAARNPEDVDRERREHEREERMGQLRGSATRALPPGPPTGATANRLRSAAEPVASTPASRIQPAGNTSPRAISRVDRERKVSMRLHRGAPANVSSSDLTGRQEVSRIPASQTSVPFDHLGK
Method in brief: as §1

[8] = molecular target: T8, kinases of the scanMAX Kinase assay panel (Homo sapiens, UniProt P04626); conditions: ERBB2; 1 uM
T8 construct: purchased DiscoverX Co. (contract measurement) scanMAX Kinase assay panel
T8 sequence (P04626 23-1255): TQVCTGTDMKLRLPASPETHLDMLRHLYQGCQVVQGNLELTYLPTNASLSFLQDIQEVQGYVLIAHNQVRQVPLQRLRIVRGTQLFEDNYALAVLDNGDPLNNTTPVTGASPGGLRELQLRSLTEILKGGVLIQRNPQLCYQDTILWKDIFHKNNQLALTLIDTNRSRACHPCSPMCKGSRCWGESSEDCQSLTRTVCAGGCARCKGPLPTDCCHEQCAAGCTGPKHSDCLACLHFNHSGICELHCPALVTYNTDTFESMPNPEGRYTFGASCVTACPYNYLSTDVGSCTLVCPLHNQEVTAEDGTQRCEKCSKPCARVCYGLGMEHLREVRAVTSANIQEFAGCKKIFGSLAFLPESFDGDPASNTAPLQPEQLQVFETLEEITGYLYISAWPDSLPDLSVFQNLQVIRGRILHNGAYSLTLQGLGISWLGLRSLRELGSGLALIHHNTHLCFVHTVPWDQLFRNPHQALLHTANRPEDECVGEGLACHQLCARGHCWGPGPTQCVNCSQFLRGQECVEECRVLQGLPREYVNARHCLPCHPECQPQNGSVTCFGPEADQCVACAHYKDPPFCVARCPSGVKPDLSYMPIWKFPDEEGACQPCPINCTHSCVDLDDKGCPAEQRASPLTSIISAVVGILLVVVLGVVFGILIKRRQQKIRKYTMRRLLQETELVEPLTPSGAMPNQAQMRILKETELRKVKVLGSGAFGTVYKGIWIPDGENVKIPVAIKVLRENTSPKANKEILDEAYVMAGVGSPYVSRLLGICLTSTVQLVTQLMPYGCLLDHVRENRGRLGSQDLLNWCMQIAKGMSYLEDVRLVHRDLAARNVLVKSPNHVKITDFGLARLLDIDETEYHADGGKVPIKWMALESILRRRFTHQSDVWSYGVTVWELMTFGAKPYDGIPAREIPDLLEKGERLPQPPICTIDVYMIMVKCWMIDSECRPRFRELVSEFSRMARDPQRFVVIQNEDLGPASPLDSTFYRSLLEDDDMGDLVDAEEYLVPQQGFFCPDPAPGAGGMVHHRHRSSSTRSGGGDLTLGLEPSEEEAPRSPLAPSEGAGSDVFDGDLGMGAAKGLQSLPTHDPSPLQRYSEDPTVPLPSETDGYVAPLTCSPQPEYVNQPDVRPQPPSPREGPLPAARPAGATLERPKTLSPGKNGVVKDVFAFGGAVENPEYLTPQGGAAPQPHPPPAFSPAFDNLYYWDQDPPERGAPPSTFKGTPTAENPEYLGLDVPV
Method in brief: as §1

[9] = molecular target: T9, kinases of the scanMAX Kinase assay panel (Homo sapiens, UniProt O00444); conditions: PLK4; 1 uM
T9 construct: purchased DiscoverX Co. (contract measurement) scanMAX Kinase assay panel
T9 sequence (O00444 1-970): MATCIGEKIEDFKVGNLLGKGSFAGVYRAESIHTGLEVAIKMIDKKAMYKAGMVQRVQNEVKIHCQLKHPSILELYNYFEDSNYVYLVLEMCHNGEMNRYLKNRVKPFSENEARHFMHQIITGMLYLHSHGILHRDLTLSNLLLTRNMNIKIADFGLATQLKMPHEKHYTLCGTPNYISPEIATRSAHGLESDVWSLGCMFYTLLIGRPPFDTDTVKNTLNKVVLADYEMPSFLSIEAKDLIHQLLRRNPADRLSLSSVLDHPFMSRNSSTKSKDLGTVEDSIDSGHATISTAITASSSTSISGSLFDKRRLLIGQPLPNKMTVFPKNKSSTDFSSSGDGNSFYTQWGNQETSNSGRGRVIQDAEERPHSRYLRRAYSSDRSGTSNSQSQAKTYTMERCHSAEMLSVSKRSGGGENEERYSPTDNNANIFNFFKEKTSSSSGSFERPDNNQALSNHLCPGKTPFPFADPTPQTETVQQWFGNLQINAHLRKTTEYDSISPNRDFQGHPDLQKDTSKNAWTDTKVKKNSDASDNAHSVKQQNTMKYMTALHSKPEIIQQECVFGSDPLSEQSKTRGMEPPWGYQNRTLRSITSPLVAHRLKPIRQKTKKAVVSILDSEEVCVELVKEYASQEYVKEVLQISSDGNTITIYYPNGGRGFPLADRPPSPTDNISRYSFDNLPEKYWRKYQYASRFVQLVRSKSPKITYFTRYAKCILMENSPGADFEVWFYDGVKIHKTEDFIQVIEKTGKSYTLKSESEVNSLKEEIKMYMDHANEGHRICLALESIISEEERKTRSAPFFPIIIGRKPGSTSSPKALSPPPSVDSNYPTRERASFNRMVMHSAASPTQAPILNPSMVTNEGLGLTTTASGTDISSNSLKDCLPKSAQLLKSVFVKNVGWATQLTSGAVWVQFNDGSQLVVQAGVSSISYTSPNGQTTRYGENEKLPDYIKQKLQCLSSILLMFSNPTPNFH
Method in brief: as §1

[10] = molecular target: T10, kinases of the scanMAX Kinase assay panel (Homo sapiens, UniProt P36507); conditions: MEK2; 1 uM
T10 construct: purchased DiscoverX Co. (contract measurement) scanMAX Kinase assay panel
T10 sequence (P36507 whole entry): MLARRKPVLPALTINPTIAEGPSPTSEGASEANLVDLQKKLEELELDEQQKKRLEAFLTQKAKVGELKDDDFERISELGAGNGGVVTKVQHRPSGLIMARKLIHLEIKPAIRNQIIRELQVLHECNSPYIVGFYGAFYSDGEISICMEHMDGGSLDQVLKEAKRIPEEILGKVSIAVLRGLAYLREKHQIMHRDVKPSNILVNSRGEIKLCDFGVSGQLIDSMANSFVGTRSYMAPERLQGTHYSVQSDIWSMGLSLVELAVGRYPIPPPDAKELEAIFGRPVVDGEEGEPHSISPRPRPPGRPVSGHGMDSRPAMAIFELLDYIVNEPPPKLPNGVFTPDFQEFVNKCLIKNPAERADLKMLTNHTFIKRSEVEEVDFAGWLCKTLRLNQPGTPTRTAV
Method in brief: as §1

SMILES | remaining binding at 1 µM [1] [%] | remaining binding at 1 µM [2] [%] | remaining binding at 1 µM [3] [%] | remaining binding at 1 µM [4] [%] | remaining binding at 1 µM [5] [%] | remaining binding at 1 µM [6] [%] | remaining binding at 1 µM [7] [%] | remaining binding at 1 µM [8] [%] | remaining binding at 1 µM [9] [%] | remaining binding at 1 µM [10] [%]
CNc1nc(Nc2ccc(C(=O)N3CCOCC3)cc2OC)nc2[nH]cc(C#N)c12 [Example 1, 2-((2-methoxy-4-(morpholine-4-carbonyl)phenyl)amino)-4-(methylamino)-7H-pyrrolo[2,3-d]pyrimidine-5-carbonitrile] | 100 | 77 | 13 | 95 | 62 | 77 | 12 | 79 | 17 | 93
CC1(Nc2nc(Nc3cnn([C@H]4CCN(C5COC5)C[C@@H]4F)c3Cl)nc3[nH]cc(C#N)c23)CC1 [Example 52, 2-((5-chloro-1-((3S,4S)-3-fluoro-1-(oxetane-3-yl)piperidine-4-yl)-1H-pyrazole-4-yl)amino)((1-methylcyclopropyl)amino)-7H-pyrrolo[2,3-d]pyrimidine-5-carbonitrile] | 76 | 100 | 0.55 | 100 | 0.4 | 0.95 | 0.15 | 100 | 0 | 0.3
CCNc1nc(Nc2ccc(C(=O)N3CCC(N4CCOCC4)CC3)cc2OC)nc2[nH]cc(C(F)(F)F)c12 [Example 104, (4-((4-(ethylamino)-5-(trifluoromethyl)-7H-pyrrolo[2,3-d]pyrimidine-2-yl)amino)-3-methoxyphenyl)(4-morpholinopiperidine-1-yl)methanone] | 95 | 100 | 0 | 100 | 70 | 91 | 4.2 | 100 | 1.7 | 83
